Source: US5798392A, “Sulfonyl fluorides for the treatment of Alzheimer's disease” (The Board of Regents of the University of Texas System, priority 1996, dated 1998)
“Also recorded” adds a separate entry of the source.

Legend:
[1] = molecular target: T1, erythrocyte acetylcholinesterase (Homo sapiens, UniProt P22303); experiment: Erythrocyte acetylcholinesterase substrate kinetics; type: biochemical
animal memory = conditions: minimum of 50% inhibition; without toxicity; cited from earlier work
[2] = tested on: brain acetylcholinesterase; conditions: rodent and monkey brain; accumulated, small doses over a long period of time; up to; cited from earlier work
[3] = Experiment II, Phase I tolerability in 10 normal subjects
[4] = Chemical stability and solubility
acetylcholinesterase [5] = conditions: cited from earlier work
[6] = tested on: brain acetylcholinesterase; experiment: Brain acetylcholinesterase inhibition in rodents and monkeys; design: species or system rodent and monkey; conditions: monkey, in vivo
[7] = molecular target: T1, erythrocyte acetylcholinesterase; experiment: Erythrocyte acetylcholinesterase inhibition in blood after oral dosing of humans (Ellman assay); type: in vivo
[8] = Experiment III, safety in patients suffering from SDAT
[9] = Experiment I, side effects and clinical blood analyses in one normal volunteer; conditions: 0.016-0.22 mg/kg oral
acetylcholinesterase [10] = experiment: Reaction with acetylcholinesterase in brain membranes in vitro; type: biochemical; conditions: solubilized in brain membranes, after removal from aqueous environment
[11] = Concentration in peripheral blood; conditions: in vivo
[12] = molecular target: plasma butyrylcholinesterase (Homo sapiens, UniProt P06276); experiment: Plasma butyrylcholinesterase inhibition in blood after oral dosing (Experiment I); type: in vivo; conditions: oral doses
plasma butyrylcholinesterase, sequence (P06276 29-602): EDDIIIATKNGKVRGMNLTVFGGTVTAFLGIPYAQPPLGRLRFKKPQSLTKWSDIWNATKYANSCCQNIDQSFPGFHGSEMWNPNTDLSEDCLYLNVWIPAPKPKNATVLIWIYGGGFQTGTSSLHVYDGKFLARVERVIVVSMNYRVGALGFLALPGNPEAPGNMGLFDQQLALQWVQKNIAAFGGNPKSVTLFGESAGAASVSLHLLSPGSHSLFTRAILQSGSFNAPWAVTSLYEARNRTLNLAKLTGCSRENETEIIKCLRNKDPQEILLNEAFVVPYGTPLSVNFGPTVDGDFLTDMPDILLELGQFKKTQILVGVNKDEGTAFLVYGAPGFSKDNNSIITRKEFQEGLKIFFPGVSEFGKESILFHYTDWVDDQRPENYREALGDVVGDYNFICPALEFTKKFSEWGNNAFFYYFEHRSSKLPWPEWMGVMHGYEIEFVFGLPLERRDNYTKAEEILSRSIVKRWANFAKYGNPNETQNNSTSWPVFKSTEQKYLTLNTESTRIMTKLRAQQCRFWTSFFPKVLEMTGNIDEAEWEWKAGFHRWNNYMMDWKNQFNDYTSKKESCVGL

[13] = tested on: patients suffering from SDAT; experiment: Global Deterioration Scale, Experiment III; type: in vivo, human
[14] = tested on: patients suffering from SDAT; experiment: Clinical Interview Based Impression of Change (CIBIC), Experiment III; type: in vivo, human; conditions: end of 16 week protocol; baseline 4.0; p<0.01 t-test one-tailed; spread SD
[15] = tested on: patients suffering from SDAT; experiment: Mini Mental State Exam, Experiment III double blind crossover; type: in vivo, human; conditions: p<0.01 one-tailed, paired t-test and Wilcoxon
rats and monkeys = experiment: Pharmacological activity after intramuscular injection in oil vehicle; type: in vivo; conditions: i.m., sterile oil vehicle
[16] = tested on: patients suffering from SDAT; experiment: ADAS-COG cognitive performance, Experiment III double blind crossover; type: in vivo, human
[17] = Prior tacrine treatment of two patients
SDAT patients = conditions: cited from earlier work
[18] = acetyl-β-methylthiocholine substrate, pH 7.4, 25° C

T1 sequence (P22303 32-574): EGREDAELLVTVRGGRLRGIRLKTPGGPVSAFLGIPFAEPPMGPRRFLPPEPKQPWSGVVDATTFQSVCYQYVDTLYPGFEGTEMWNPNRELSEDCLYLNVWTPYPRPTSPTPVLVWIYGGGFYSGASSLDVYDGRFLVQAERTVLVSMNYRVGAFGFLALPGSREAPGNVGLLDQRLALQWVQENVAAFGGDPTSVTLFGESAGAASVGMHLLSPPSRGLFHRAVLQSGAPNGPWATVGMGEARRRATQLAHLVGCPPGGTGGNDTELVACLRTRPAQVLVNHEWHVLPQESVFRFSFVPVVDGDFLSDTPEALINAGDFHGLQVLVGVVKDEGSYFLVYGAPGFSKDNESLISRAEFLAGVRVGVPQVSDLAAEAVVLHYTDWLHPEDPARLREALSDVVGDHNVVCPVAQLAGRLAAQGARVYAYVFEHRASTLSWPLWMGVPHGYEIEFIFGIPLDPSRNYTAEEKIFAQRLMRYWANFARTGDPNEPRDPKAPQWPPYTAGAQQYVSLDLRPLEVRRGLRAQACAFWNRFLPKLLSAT

## CC(=O)SC(C)C[N+](C)(C)C (stereo not drawn) [acetyl-β-methylthiocholine]
[1]; 1.0 mM substrate, approximately 10 times Km, without substrate inhibition
  percent of Vmax produced by substrate concentration: about 91%
[1]; [18]
  Acetylcholinesterase Vmax: 9.2552 (SEM=0.6386) ×10-6 moles/gram of erythrocytes/min
  erythrocyte acetylcholinesterase Vmax: 9.2552 (SEM=0.6386) ×10^-6 moles/gm/min

## CS(=O)(=O)F [methanesulfonyl fluoride]
Animal memory
  enhancement of animal memory: strong methanesulfonyl fluoride-induced enhancement of animal memory without toxicity
[2]
  inhibition of brain acetylcholinesterase: 80-90%
[3]; 0.03-0.18 mg/kg oral, Experiment II
  tolerability: All doses used were tolerated well
[3]; Experiments I and II
  safety at range of doses expected to produce a therapeutic effect: safe at the range of doses expected to produce a therapeutic effect
[3]; oral, Experiment II
  oral absorption: consistently absorbed after oral administration
[4]; lipids
  solubility in lipids: highly soluble in lipids
[4]; water solutions
  chemical stability in water solutions: would degrade in water solutions
Acetylcholinesterase [5]
  mechanism and duration of acetylcholinesterase inhibition: long-acting irreversible inhibitor of acetylcholinesterase
  selectivity for acetylcholinesterase in comparison to butyrylcholinesterase: high selectivity
[6]
  inhibition in brain versus peripheral tissues: much more inhibition in brain than peripheral tissues
[7]; 0.14 mg/kg oral three times per week, Experiment III, spread SEM in %
  inhibition at 0.14 mg/kg: 85.3%
[7]; 0.18 mg/kg oral three times per week, Experiment III, spread SEM in %
  inhibition at 0.18 mg/kg: 89.5%
[7]; 18% inhibition of remaining active enzyme per dose, Experiment I
  estimated minimum therapeutic dose: 0.11 mg/kg
[7]; 18% inhibition of remaining enzyme, three times per week, Experiments I and II
  refined estimation of the (minimum) therapeutic dose: 0.14 mg/kg
[7]; Experiment II, FIG. 6, least squares linear regression
  dose-response correlation r: +0.8956
[7]; Experiment II, FIG. 6, oral
  dose/response relationship: orderly and consistent dose/response relationship
[7]; Experiment II, oral
  dose required to produce 18% inhibition of acetylcholinesterase remaining active: 0.143 mg/kg
[7]; FIG. 4, Experiment I oral doses, versus plasma butyrylcholinesterase
  selectivity for erythrocyte acetylcholinesterase: strongly selective for erythrocyte acetylcholinesterase
[7]; FIG. 5, 80 days after treatment ceased
  recovery kinetics of erythrocyte acetylcholinesterase: follows pseudo-first order kinetics; also recorded: strictly linear plot of LOG10 [%INH] against time
[7]; FIG. 5, Experiment I, 80 days after last dose
  half-life for recovery of erythrocyte acetylcholinesterase: 43 days
[7]; oral, Experiment I, FIG. 1
  activity by oral administration (erythrocyte acetylcholinesterase inhibition): active by oral administration
[7]; oral, Experiment I, FIG. 1, one observation at each dose
  dose-response of erythrocyte acetylcholinesterase inhibition: orderly dose-response curve
[7]; patients treated up to 8 weeks
  inhibition of erythrocyte acetylcholinesterase: 85-90%
[7]; recovery of erythrocyte acetylcholinesterase, FIG. 5, least squares linear regression
  correlation coefficient r, LOG10 [% inhibition] against time: -0.9254
[8]; 0.14 mg/kg, first 7 patients
  adverse events: no adverse events
[8]; Experiment III
  clinical blood profiles, especially transaminases: no changes in clinical blood profiles
  nausea, vomiting, diarrhea, or other cholinergic side effects: no patients suffered
  signs of toxicity at the doses used: no signs of methanesulfonyl fluoride toxicity
[8]; Experiment III, 0.14-0.18 mg/kg
  adverse events related to drug treatment: no adverse events
[8]; Experiment III, 21 enrolled, 15 completed
  patients leaving the protocol because of a drug-related adverse event: No patients
[8]; doses sufficient for treatment of dementia
  peripheral cholinergic or other toxic effects: not accompanied by peripheral cholinergic or other toxic effects
[8]; patients, up to 8 weeks, 85-90% inhibition of erythrocyte acetylcholinesterase
  hematocrit changes: no changes in hematocrit
[8]; two patients with prior tacrine adverse effects
  adverse events in patients with known tacrine sensitivity: Neither of these patients with known sensitivities experienced adverse events
[9]
  changes in the clinical blood analyses: no changes of any type in the clinical blood analyses
  cholinergic effects (e.g., diarrhea, vomiting, nausea): no cholinergic effects
Acetylcholinesterase [10]
  continued reaction against acetylcholinesterase: continues to react against acetylcholinesterase even after it is removed from the aqueous environment of the membranes in vitro
[11]
  concentration in the peripheral blood: drops within hours
[12]
  inhibition of plasma butyrylcholinesterase: virtually no inhibition of plasma butyrylcholinesterase
[13]; 16 weeks versus baseline, p<0.01 t-test one-tailed, spread SEM
  mean improvement in Global Deterioration Score: 1.3 (SEM=0.33)
[13]; end of 16 week protocol, baseline 4.4 (SEM=0.21)
  mean Global Deterioration Score at the end of the protocol: 3.1
[14]
  mean CIBIC: 2.98 (SD=1.13)
[15]
  Mini-Mental State score change in 8 weeks compared to placebo: significant improvement compared to the placebo
Rats and monkeys
  pharmacological activity if injected intramuscularly: pharmacologically active
[16]; 6 point reduction from 30 errors
  percent improvement on the ADAS-COG: 20%
[16]; Experiment III, mean of 30 errors at beginning
  mean improvement on the ADAS-COG: 6 points
[16]; FIG. 7, during methanesulfonyl fluoride treatment
  cognitive performance (reduction in errors on the ADAS-COG): substantial improvement of cognitive performance
[16]; after/through 8 weeks of placebo treatment
  duration of improvement after treatment: still clearly present after 8 weeks of placebo treatment; also recorded: maintained through 8 weeks of placebo
[16]; in vivo
  efficacy compared with tacrine in enhancing cognitive functions in SDAT: significantly greater efficacy than tacrine
[16]; methanesulfonyl fluoride first, then placebo
  improvement on ADAS-COG maintained throughout 8 additional weeks of placebo: about 6 points
[16]; p<0.01 one-tailed, paired t-test and Wilcoxon
  ADAS-COG change in 8 weeks compared to placebo: significant improvement compared to the placebo
[16]; p<0.05, N=15
  correlation of ADAS-COG improvement with baseline ADAS-COG errors: +0.6

## COP(=O)(OC)C(O)C(Cl)(Cl)Cl (centres unmarked) [metrifonate, reference compound]
Acetylcholinesterase [5]
  selectivity for acetylcholinesterase in comparison to butyrylcholinesterase: do not show this high degree of selectivity

## CNC(=O)Oc1ccc2c(c1)[C@]1(C)CCN(C)[C@@H]1N2C [physostigmine, reference compound]
Acetylcholinesterase [5]
  selectivity for acetylcholinesterase in comparison to butyrylcholinesterase: do not show this high degree of selectivity

## Nc1c2c(nc3ccccc13)CCCC2 [tacrine]
[17]; one patient each
  prior adverse effects: liver toxicity; also recorded: vomiting
[17]; one patient, an ineffective dose
  highest tolerated dose (limited by vomiting): 60 mg/day
SDAT patients; high dose tacrine, patients who could tolerate
  mean improvement on the ADAS-COG: 2 points
SDAT patients; high dose tacrine
  patients who could tolerate: 40%
  patients who failed to complete the protocol because of drug-related adverse events: about 60%
SDAT patients; in vivo
  adverse events related to treatment: cholinergic side effects (nausea, vomiting, diarrhea, etc.) and liver toxicity
